Data reported in the supplement of paper PMC11061612.

How the values were obtained:
[1] = test system: BICR78 (Oral Cavity Carcinoma); assay: combination Emax (second highest fraction inhibited in the dose matrix, 72 h); higher = more inhibition; extreme values may be limits of the assay
Outline: (§1)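 Cell lines grown in DMEM/F12 or RPMI with 10% FBS were plated in 1536-well plates and held 24 hours at 37°C, 5% CO2 before 72 hours of exposure to two-drug dose matrices, with DMSO typically at 0.2%. CellTiter-Glo 2.0 luminescence gave viability, which was converted to inhibition. Vehicle wells were set to 0 and blank wells to 1. Combination Emax is the second-highest inhibition in the matrix, and Bliss excess is the observed combination effect minus the expected EA + EB − EA·EB, where EA and EB are the single-agent effects.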

[2] = test system: SW948 (Colorectal Carcinoma); assay: as above
Outline: as §1

[3] = test system: EW-22 (Ewing's Sarcoma); assay: as above
Outline: as §1

[4] = test system: MSTO-211H (Mesothelioma); assay: as above
Outline: as §1

[5] = test system: SLVL (B-Cell Non-Hodgkin's Lymphoma); assay: as above
Outline: as §1

[6] = test system: FU-OV-1 (Ovarian Carcinoma); assay: as above
Outline: as §1

[7] = test system: MEG-01 (Chronic Myelogenous Leukemia); assay: as above
Outline: as §1

[8] = test system: Saos-2 (Osteosarcoma); assay: as above
Outline: as §1

[9] = test system: H4 (Low Grade Glioma); assay: as above
Outline: as §1

[10] = test system: D-283MED (Other Solid Carcinomas); assay: as above
Outline: as §1

[11] = test system: CAL-39 (Other Solid Carcinomas); assay: as above
Outline: as §1

[12] = test system: HLE (Hepatocellular Carcinoma); assay: as above
Outline: as §1

[13] = test system: SK-MEL-1 (Melanoma); assay: as above
Outline: as §1

[14] = test system: YT (Other Blood Carcinomas); assay: as above
Outline: as §1

[15] = test system: SK-LMS-1 (Other Solid Carcinomas); assay: Bliss excess, mean over the matrix (fraction); higher = more synergy
Outline: as §1

[16] = test system: SNG-M (Endometrial Carcinoma); assay: as above
Outline: as §1

[17] = test system: FU-OV-1 (Ovarian Carcinoma); assay: as above
Outline: as §1

[18] = test system: HCC38 (Breast Carcinoma); assay: as above
Outline: as §1

[19] = test system: Saos-2 (Osteosarcoma); assay: as above
Outline: as §1

[20] = test system: HLE (Hepatocellular Carcinoma); assay: as above
Outline: as §1
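Wherever Bliss excess, mean over the matrix is given: after 72 h of two-drug dosing.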

Row | SMILES | combination Emax [1] | combination Emax [2] | combination Emax [3] | combination Emax [4] | combination Emax [5] | combination Emax [6] | combination Emax [7] | combination Emax [8] | combination Emax [9] | combination Emax [10] | combination Emax [11] | combination Emax [12] | combination Emax [13] | combination Emax [14] | Bliss excess [15] | Bliss excess [16] | Bliss excess [17] | Bliss excess [18] | Bliss excess [19] | Bliss excess [20]
1 | C[C@@H](Nc1cc(F)cc(F)c1)c1cc(C(=O)N(C)C)cc2c(=O)cc(N3CCOCC3)oc12 [AZD8186] + C1CN(CCC1(C(=O)N[C@@H](CCO)C2=CC=C(C=C2)Cl)N)C3=NC=NC4=C3C=CN4 [AZD5363] (first compound max 10 µM, 7x7, partner max 10 µM) | 0.394 | 0.656 | 0.45 | 0.265 | 0.709 | 0.401 | 0.226 | 0.425 | 0.597 | 0.485 | 0.667 | 0.144 | 0.154 | 0.247 | 0.0606 | -0.0046 | -0.117 | -0.0395 | 0.0104 | 0.0045
2 | C[C@@H](Nc1cc(F)cc(F)c1)c1cc(C(=O)N(C)C)cc2c(=O)cc(N3CCOCC3)oc12 [AZD8186] + CC(=O)c1c(C)c2cnc(Nc3ccc(N4CCNCC4)cn3)nc2n(C2CCCC2)c1=O [Palbociclib] (first compound max 10 µM, 7x7, partner max 10 µM) | 0.385 | 0.433 | 0.45 | 0.428 | 0.439 | 0.444 | 0.182 | 0.329 | 0.697 | 0.831 | 0.772 | 0.197 | 0.265 | 0.448 | 0.147 | -0.0361 | -0.0311 | -0.0466 | -0.0181 | 0.0326
3 | C[C@@H](Oc1cc(-c2cnn(C3CCNCC3)c2)cnc1N)c1c(Cl)ccc(F)c1Cl [Crizotinib] + CC1=C(C(=CC=C1)Cl)NC(=O)C2=CN=C(S2)NC3=CC(=NC(=N3)C)N4CCN(CC4)CCO [Dasatinib] (first compound max 10 µM, 7x7, partner max 2 µM) | 0.829 | 0.793 | 0.766 | 0.674 | 0.761 | 0.682 | 1 | 0.986 | 0.963 | 0.979 | 0.987 | 0.404 | 0.916 | 0.885 | 0.153 | 0.0813 | 0.0761 | 0.0255 | 0.0807 | 0.0195
4 | C[C@@H](Oc1cc(-c2cnn(C3CCNCC3)c2)cnc1N)c1c(Cl)ccc(F)c1Cl [Crizotinib] + Cn1cnc2c(F)c(Nc3ccc(Br)cc3Cl)c(C(=O)NOCCO)cc21 [Selumetinib] (first compound max 10 µM, 7x7, partner max 10 µM) | 0.456 | 0.899 | 0.78 | 0.576 | 0.742 | 0.673 | 1 | 0.883 | 0.787 | 0.973 | 0.866 | 0.365 | 0.916 | 0.621 | 0.0367 | -0.0333 | 0.0748 | -0.0447 | -0.0337 | 0.0014
5 | O=C(c1cc(Cc2n[nH]c(=O)c3ccccc23)ccc1F)N1CCN(C(=O)C2CC2)CC1 [Olaparib] + CC1(C)CCC(CN2CCN(c3ccc(C(=O)NS(=O)(=O)c4ccc(NCC5CCOCC5)c([N+](=O)[O-])c4)c(Oc4cnc5[nH]ccc5c4)c3)CC2)=C(c2ccc(Cl)cc2)C1 [Venetoclax] (first compound max 10 µM, 7x7, partner max 1 µM) | 0.108 | 0.122 | 0.921 | 0.0774 | 0.7 | 0.199 | 0.109 | 0.249 | 0.267 | 0.666 | 0.0578 | 0.0962 | 0.151 | 0.276 | -0.012 | -0.0347 | -0.0467 | -0.0247 | -0.0289 | -0.0308
6 | O=C(c1cc(Cc2n[nH]c(=O)c3ccccc23)ccc1F)N1CCN(C(=O)C2CC2)CC1 [Olaparib] + CN(CC[C@H](CSC1=CC=CC=C1)NC2=C(C=C(C=C2)S(=O)(=O)NC(=O)C3=CC=C(C=C3)N4CCC(CC4)[C@H](C5=CC=CC=C5C6=CC=C(C=C6)Cl)O)S(=O)(=O)C(F)(F)F)CCO [AZD4320] (first compound max 10 µM, 7x7, partner max 1 µM) | 0.0831 | 0.303 | 0.988 | 0.456 | 0.982 | 0.226 | 0.505 | 0.326 | 0.389 | 0.914 | 0.116 | 0.274 | 0.42 | 0.343 | -0.0169 | -0.014 | -0.0355 | -0.0541 | -0.0312 | -0.0213
7 | O=C(c1cc(Cc2n[nH]c(=O)c3ccccc23)ccc1F)N1CCN(C(=O)C2CC2)CC1 [Olaparib] + COc1nnc2ccc(N3CCC(c4ccc(OCCN5CCN(C)C(=O)[C@H]5C)cc4)CC3)nn12 [AZD5153] (first compound max 10 µM, 7x7, partner max 1 µM) | 0.41 | 0.428 | 0.909 | 0.246 | 0.685 | 0.59 | 0.76 | 0.454 | 0.658 | 0.881 | 0.518 | 0.338 | 0.303 | 0.53 | -0.0329 | -0.0663 | -0.0107 | -0.0793 | -0.02 | -0.0392
8 | O=C(c1cc(Cc2n[nH]c(=O)c3ccccc23)ccc1F)N1CCN(C(=O)C2CC2)CC1 [Olaparib] + Cc1c2c(nn1C)CSCc1cc(n(C)n1)CSc1cc(c3ccccc3c1)OCCCc1c(C(=O)O)n(C)c3c-2c(Cl)ccc13 [AZD5991] (first compound max 10 µM, 7x7, partner max 1 µM) | 0.0524 | 0.158 | 0.93 | 0.0433 | 0.362 | 0.199 | 0.116 | 0.384 | 0.393 | 0.9 | 0.21 | 0.157 | 0.127 | 1 | -0.0076 | 0.002 | -0.071 | -0.0457 | -0.0087 | -0.0144
9 | N#Cc1cnc(Nc2cc(NC[C@H]3CNCCO3)c(C(F)(F)F)cn2)cn1 [SRA737] + C=CCn1c(=O)c2cnc(Nc3ccc(N4CCN(C)CC4)cc3)nc2n1-c1cccc(C(C)(C)O)n1 [AZD1775] (first compound max 10 µM, partner max 1 µM) | 0.561 | 0.807 | 0.873 | 0.726 | 0.935 | 0.632 | 0.935 | 0.811 | 0.792 | 1 | 0.454 | 0.485 | 0.277 | 1 | 0.112 | -0.0045 | 0.0719 | 0.0088 | 0.0939 | 0.013
10 | N#Cc1cnc(Nc2cc(NC[C@H]3CNCCO3)c(C(F)(F)F)cn2)cn1 [SRA737] + CCc1c2c(nc3ccc(O)cc13)-c1cc3c(c(=O)n1C2)COC(=O)[C@]3(O)CC [SN-38] (first compound max 10 µM, 7x7, partner max 0.3 µM) | 0.854 | 0.834 | 0.932 | 0.705 | 0.945 | 0.495 | 0.946 | 0.948 | 0.832 | 0.994 | 0.93 | 0.798 | 0.486 | 0.987 | -0.0248 | -0.111 | -0.0076 | -0.049 | -0.0303 | -0.0755
11 | N#Cc1cnc(Nc2cc(NC[C@H]3CNCCO3)c(C(F)(F)F)cn2)cn1 [SRA737] + Nc1ccn([C@@H]2O[C@H](CO)[C@@H](O)C2(F)F)c(=O)n1 [Gemcitabine] (first compound max 10 µM, 7x7, partner max 0.3 µM) | 0.782 | 0.828 | 0.93 | 0.83 | 0.961 | 0.584 | 0.883 | 0.817 | 0.953 | 1 | 0.932 | 0.773 | 0.482 | 1 | 0.0202 | -0.0731 | -0.0233 | -0.0054 | 0.0276 | 0.029
12 | CC1(C)CCC(CN2CCN(c3ccc(C(=O)NS(=O)(=O)c4ccc(NCC5CCOCC5)c([N+](=O)[O-])c4)c(Oc4cnc5[nH]ccc5c4)c3)CC2)=C(c2ccc(Cl)cc2)C1 [Venetoclax] + CS(=O)(=O)CCNCc1ccc(-c2ccc3ncnc(Nc4ccc(OCc5cccc(F)c5)c(Cl)c4)c3c2)o1 [Lapatinib] (first compound max 1 µM, 7x7, partner max 10 µM) | 0.364 | 0.352 | 0.214 | 0.299 | 0.26 | 0.324 | 0.485 | 0.214 | 0.171 | 0.927 | 0.913 | 0.137 | 0.327 | 0.295 | -0.0127 | -0.0166 | -0.0697 | -0.0355 | -0.0131 | -0.0347
